Laboratory results reported in patent US6664096B2, “Methods for improved diagnosis and treatment of mycobacterial infections” (priority 2000, dated 2003).
Read-outs that look alike come from different tables or passages of the source.

Assays:
Type in all cases: cell-based
[1] = system: M. tuberculosis H37Ra; experiment: Resuscitation of 6 month old culture by phospholipids, CFU on 7H11 agar; conditions: for CFU/ml: 4 μg/ml, 6 month old cells, 7H11 agar, 3 weeks
Method: M. tuberculosis H37Ra cultures were grown in 7H9 medium containing Tween 80 (0.05%) and ADC (albumin-dextrose-catalase) enrichment at 37° C. for various periods of time as standing batch cultures. Cultures of varying age up to one year were used for the resuscitation experiments. Resuscitation of dormant M. tuberculosis by phosphatidylserine was performed as follows. A 6 month old M. tuberculosis H37Ra culture was washed and resuspended in 7H9 medium followed by plating at different dilutions on 7H11 agar plates containing 4 μg/ml phosphatidylserine (derived from bovine brain, containing a mixture of two unknown fatty acyl groups, Sigma Chemical Co.) or phosphatidylserine dioleoyl. The plates were incubated at 37° C. for 3 weeks when the CFU was determined. Data represent average of duplicate samples.
To confirm that a phospholipid was responsible for activity, we first tested commercially available phosphatidyl-L-serine and a dioleoyl phosphatidyl-L-serine, both of which are precursor of phosphatidylethanolamine and phosphatidylcholine, for resuscitation activity for the 6 month old M. tuberculosis H37Ra cells. Both compounds had significant resuscitation activity over medium control as judged by colony forming units (CFU) assay. Phosphatidyl-L-serine and a dioleoyl phosphatidyl-L-serine at 4 μg/ml gave 1.2×10^7, 2×10^6 CFU/ml, respectively, whereas the medium control produced 3×10^4 CFU/ml.

[2] = system: M. tuberculosis H37Ra; conditions: 7-month-old culture
[3] = system: M. tuberculosis H37Ra; conditions: 7-month-old culture; remark: listed apart in the source
[4] = system: M. tuberculosis H37Ra; conditions: 4 week old culture
[5] = system: M. tuberculosis H37Ra; conditions: 7-month-old culture; remark: listed apart in the source
[6] = system: M. tuberculosis H37Ra; experiment: Growth of small inocula of fresh 4-week-old culture with phosphatidylserine; conditions: 5 μg/ml in Sauton's medium, 20 days
Method: It is well known that to initiate growth of M. tuberculosis in liquid culture a large inoculum is required (Dubos and Davis, 1946). In a separate experiment involving a fresh 4-week-old M. tuberculosis H37Ra culture, the culture was serially diluted into Sauton's medium (1 ml) alone or into medium containing 5 μg/ml phosphatidylserine at 10^−2, 10^−3, 10^−4, 10^−5, 10^−6, 10^−7 dilutions. The cultures were incubated at 37° C. for 20 days when the visible growth was assessed and the cultures were plated on 7H11 plates, which were incubated at 37° C. for 3 weeks. Phosphatidyl-L-serine allowed small inocula (10^−7 dilution) to form visible growth and CFU on plates, whereas the control culture grew only at 10^−5 dilution.

Row | Molecule | CFU/ml [1] | MTT data (OD readings at 570 nm) ([2]; day 0) [OD] | MTT data (OD readings at 570 nm) ([2]; day 5) [OD] | MTT data (OD readings at 570 nm) ([2]; day 10) [OD] | CFU data ([3]; day 5) | CFU data ([3]; day 10) | CFU values ([4]; day 3) [mL⁻¹] | CFU values ([4]; day 5) [mL⁻¹] | CFU values ([4]; day 8) [mL⁻¹] | CFU values ([4]; day 11) [mL⁻¹] | FDA-EB viability staining (% of viable green cells) ([5]; day 0) [%] | FDA-EB viability staining (% of viable green cells) ([5]; day 5) [%] | FDA-EB viability staining (% of viable green cells) ([5]; day 10) [%] | small inocula (dilution) forming visible growth and CFU on plates [6] | resuscitation and growth enhancing activity ([1]; compared with phosphatidylserine)
1 | CCCCCCCC/C=C\CCCCCCCC(=O)OC[C@H](COP(=O)(O)OC[C@H](N)C(=O)O)OC(=O)CCCCCCC/C=C\CCCCCCCC [dioleoyl phosphatidyl-L-serine] | 2×10^6 CFU/ml | – | – | – | – | – | – | – | – | – | – | – | – | – | –
2 | NH2-AQLQAVPGAAQYIGLVESVAGSCNNY-OH (H-AQLQAVPGAAQYIGLVESVAGSCNNY-OH; listed as Mycobacterium tuberculosis) [Peptide P4, residues 85-110] | – | 0.2248 | 0.6287 | 1.4131 | 50 × 10^5 CFU/ml | 900 × 10^5 CFU/ml | 2e+06 | 3.25e+06 | 7.5e+07 | 2e+08 | 1 | 11.5 | 50 | – | –
3 | NH2-LNATDPGAAAQFNASPVAQSYLRN-OH (H-LNATDPGAAAQFNASPVAQSYLRN-OH; listed as Mycobacterium tuberculosis) [Peptide P2, residues 48-71] | – | 0.2609 | 0.6269 | 1.1567 | 100 × 10^5 CFU/ml | 200 × 10^5 CFU/ml | 225000 | 500000 | 1.5e+07 | 7.5e+07 | 1 | 2 | 27.5 | – | –
4 | NH2-LRNFLAAPPPQRAAMAAQLQAV-OH (H-LRNFLAAPPPQRAAMAAQLQAV-OH; listed as Mycobacterium tuberculosis) [Peptide P3, residues 69-90] | – | 0.3147 | 0.6219 | 1.1917 | 40 × 10^5 CFU/ml | 800 × 10^5 CFU/ml | 450000 | 4.5e+07 | 1.5e+08 | 1.5e+08 | 2 | 4.5 | 42.5 | – | –
5 | phosphatidyl-L-serine | 1.2×10^7 CFU/ml | – | – | – | – | – | – | – | – | – | – | – | – | 10^−7 | –
6 | phosphatidylglycerol-oleoyl-palmitoyl [reference compound] | – | – | – | – | – | – | – | – | – | – | – | – | – | – | did not have significant activity
